Where two headings read alike, the source gives them in different places.
Legend:
Assay in all cases: kinase profiling panel
Format in all cases: biochemical
Conditions in all cases: read-out: % Activity Remaining
Aurora B = Aurora B (Homo sapiens, UniProt Q96GD4)
Text: (§1) Protein kinase profiling against a Dundee panel of 140 protein kinases was undertaken at the International Centre for Protein Kinase Profiling. The result for each kinase was presented as a mean kinase activity of the reaction taken in triplicate relative to a control sample treated with DMSO. Assay conditions and abbreviations are available at http://www.kinase-screen.mrc.ac.uk.

DDR2 = biological target: T1, DDR2 (Homo sapiens, UniProt Q16832)
T1 sequence (Q16832 22-855): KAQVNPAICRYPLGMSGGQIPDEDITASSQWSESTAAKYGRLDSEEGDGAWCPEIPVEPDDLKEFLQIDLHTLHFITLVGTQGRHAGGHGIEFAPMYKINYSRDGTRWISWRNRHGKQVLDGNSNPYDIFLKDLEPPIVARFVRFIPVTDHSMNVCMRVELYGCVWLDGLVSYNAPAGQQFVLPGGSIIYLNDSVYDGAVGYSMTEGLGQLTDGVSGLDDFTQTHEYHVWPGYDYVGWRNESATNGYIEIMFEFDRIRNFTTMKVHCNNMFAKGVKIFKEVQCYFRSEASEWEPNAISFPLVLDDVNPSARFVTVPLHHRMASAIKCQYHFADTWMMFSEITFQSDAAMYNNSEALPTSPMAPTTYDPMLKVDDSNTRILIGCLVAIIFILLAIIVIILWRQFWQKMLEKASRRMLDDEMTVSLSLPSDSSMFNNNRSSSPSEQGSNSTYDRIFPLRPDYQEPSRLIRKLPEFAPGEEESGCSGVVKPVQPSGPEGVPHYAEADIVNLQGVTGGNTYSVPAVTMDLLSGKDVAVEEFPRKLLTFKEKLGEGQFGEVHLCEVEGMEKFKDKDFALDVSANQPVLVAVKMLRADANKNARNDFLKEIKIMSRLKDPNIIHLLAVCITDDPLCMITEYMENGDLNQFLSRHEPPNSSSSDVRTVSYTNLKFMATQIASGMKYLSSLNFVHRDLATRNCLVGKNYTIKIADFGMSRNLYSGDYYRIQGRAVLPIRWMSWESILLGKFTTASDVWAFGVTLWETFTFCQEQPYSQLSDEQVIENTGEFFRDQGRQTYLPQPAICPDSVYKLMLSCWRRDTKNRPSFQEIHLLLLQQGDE
Text: as §1

HIPK1 = HIPK1 (Homo sapiens, UniProt Q86Z02)
Text: as §1

MNK2 = MNK2 (Homo sapiens, UniProt Q9HBH9)
Text: as §1

PAK4 = PAK4 (Homo sapiens, UniProt O96013)
Text: as §1

PKC alpha = PKC alpha (Homo sapiens, UniProt P17252)
Text: as §1

S6K1 = S6K1 (Homo sapiens, UniProt P23443)
Text: as §1

SGK1 = biological target: T2, SGK1 (Homo sapiens, UniProt O00141)
T2 sequence (O00141 1-431): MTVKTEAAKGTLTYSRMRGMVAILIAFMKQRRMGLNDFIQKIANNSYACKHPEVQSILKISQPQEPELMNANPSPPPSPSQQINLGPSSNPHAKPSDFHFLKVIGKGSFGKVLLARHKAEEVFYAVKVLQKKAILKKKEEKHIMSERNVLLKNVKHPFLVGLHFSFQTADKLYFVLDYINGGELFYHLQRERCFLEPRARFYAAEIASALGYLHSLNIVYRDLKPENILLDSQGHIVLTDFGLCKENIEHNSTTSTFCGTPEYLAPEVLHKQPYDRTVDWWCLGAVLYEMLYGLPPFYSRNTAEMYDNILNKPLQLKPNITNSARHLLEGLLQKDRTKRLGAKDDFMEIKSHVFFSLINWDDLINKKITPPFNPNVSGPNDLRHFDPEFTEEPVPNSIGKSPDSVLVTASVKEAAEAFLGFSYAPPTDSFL
Text: as §1

Src = Src (Homo sapiens, UniProt P12931)
Text: as §1

ZAP70 = biological target: T3, ZAP70 (Homo sapiens, UniProt P43403)
T3 sequence (P43403 1-619): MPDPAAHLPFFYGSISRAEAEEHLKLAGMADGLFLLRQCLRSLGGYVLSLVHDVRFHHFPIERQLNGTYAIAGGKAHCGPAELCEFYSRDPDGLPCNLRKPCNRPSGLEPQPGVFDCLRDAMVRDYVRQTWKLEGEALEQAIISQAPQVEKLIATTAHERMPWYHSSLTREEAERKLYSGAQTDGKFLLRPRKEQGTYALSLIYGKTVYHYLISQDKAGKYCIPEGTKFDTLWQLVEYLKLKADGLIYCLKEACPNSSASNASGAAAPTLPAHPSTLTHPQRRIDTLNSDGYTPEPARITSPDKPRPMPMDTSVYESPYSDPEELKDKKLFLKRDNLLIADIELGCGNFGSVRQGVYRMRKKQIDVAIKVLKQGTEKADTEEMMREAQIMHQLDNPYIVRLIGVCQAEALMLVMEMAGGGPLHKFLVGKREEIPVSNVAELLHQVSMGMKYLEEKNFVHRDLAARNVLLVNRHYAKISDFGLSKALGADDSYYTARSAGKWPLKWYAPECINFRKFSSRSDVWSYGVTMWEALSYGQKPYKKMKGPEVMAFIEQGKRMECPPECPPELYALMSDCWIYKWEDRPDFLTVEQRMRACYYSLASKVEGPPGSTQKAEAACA
Text: as §1

Chain of HIPK1 (Q86Z02 whole entry): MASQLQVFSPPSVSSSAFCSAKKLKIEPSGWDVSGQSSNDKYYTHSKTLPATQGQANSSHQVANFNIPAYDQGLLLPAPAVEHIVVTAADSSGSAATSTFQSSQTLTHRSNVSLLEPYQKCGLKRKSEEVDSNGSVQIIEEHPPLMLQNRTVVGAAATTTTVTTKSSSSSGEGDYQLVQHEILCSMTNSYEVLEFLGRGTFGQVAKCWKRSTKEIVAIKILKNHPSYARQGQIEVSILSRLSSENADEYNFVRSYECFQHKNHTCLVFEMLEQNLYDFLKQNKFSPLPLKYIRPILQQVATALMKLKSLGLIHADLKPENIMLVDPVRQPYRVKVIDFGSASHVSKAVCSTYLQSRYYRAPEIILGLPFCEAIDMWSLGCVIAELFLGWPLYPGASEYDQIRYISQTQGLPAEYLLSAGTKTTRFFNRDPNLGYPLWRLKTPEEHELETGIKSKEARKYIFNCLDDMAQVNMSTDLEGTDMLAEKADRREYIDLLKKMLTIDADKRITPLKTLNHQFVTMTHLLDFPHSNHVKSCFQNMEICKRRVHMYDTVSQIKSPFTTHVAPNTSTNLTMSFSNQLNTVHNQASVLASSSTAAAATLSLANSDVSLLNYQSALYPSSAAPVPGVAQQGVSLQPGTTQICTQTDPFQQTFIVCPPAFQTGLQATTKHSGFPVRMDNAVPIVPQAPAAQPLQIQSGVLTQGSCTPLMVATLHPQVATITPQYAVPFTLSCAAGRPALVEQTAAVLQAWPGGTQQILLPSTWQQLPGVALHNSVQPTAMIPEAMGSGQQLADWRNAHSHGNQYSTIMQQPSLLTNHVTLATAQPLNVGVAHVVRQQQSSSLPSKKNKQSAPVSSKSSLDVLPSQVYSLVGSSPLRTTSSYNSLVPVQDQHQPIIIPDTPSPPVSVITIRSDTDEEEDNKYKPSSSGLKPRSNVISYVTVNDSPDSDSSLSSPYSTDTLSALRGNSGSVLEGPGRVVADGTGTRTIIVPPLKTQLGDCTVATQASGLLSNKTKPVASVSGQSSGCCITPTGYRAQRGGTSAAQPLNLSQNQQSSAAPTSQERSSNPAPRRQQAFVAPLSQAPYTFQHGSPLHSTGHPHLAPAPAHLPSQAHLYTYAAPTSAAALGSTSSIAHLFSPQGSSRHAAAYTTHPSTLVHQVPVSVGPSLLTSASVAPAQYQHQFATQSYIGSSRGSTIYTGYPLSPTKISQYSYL
Chain of MNK2 (Q9HBH9 whole entry): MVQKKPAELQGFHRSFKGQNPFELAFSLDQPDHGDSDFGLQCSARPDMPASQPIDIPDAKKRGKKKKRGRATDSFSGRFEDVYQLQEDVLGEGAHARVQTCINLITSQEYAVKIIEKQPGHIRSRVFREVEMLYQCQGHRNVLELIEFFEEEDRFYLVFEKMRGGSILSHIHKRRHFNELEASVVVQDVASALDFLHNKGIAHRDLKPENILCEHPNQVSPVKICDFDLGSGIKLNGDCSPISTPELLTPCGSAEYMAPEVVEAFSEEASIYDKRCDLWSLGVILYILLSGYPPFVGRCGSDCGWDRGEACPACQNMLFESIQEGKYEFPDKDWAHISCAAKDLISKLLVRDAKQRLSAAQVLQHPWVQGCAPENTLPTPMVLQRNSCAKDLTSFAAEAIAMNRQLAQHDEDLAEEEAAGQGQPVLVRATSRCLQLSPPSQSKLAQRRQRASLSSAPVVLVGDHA
Chain of Aurora B (Q96GD4 whole entry): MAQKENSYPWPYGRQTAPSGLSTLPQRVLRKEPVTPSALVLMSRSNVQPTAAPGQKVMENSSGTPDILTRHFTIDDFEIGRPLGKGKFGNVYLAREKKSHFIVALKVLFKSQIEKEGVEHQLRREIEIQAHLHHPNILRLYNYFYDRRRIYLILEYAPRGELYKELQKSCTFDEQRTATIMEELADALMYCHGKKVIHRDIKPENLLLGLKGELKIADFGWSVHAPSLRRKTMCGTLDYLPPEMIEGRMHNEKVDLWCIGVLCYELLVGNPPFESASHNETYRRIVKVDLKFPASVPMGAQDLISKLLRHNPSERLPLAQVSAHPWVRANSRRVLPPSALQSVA
Chain of PAK4 (O96013 whole entry): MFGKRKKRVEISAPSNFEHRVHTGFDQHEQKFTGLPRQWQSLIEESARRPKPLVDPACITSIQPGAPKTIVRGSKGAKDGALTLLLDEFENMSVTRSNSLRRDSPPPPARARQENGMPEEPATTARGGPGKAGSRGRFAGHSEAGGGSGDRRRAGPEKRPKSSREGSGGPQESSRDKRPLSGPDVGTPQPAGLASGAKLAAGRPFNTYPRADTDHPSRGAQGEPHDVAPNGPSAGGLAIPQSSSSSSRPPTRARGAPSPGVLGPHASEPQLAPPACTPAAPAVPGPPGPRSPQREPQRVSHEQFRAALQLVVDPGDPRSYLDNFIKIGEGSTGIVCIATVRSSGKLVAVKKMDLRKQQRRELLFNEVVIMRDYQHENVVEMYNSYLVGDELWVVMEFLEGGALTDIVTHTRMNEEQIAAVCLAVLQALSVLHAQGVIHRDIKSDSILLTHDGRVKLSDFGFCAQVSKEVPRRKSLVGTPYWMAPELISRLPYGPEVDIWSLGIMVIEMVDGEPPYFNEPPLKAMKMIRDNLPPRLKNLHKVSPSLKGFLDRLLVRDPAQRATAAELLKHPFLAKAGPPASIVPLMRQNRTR
Chain of Src (P12931 whole entry): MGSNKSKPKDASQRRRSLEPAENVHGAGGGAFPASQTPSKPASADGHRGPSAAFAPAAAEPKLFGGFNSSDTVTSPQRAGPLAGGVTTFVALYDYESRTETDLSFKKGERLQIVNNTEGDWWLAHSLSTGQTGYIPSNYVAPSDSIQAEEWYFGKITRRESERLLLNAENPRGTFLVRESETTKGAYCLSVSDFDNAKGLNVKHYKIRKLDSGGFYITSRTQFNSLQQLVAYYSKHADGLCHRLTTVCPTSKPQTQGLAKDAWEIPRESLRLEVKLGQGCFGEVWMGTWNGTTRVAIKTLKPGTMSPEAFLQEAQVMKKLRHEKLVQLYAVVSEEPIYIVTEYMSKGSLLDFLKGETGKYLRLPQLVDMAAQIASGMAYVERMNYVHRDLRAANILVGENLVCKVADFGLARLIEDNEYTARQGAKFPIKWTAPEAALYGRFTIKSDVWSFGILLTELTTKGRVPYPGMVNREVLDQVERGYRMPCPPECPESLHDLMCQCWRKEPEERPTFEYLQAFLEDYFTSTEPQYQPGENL
Chain of S6K1 (P23443 whole entry): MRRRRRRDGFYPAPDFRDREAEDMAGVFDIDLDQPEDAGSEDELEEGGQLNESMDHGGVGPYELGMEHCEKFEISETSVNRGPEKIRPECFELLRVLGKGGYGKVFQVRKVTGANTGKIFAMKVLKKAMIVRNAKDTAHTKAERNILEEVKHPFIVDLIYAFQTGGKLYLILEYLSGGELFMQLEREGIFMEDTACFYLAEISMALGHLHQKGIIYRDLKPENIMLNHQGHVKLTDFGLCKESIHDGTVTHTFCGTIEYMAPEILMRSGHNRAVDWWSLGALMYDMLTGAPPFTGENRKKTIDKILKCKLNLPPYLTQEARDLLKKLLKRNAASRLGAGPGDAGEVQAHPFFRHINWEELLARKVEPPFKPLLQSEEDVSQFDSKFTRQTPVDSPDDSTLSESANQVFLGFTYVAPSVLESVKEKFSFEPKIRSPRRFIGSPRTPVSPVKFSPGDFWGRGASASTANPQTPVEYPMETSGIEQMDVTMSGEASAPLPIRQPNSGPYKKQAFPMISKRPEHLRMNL

Row | SMILES | remaining activity at 1 µM (Aurora B; 1 µM) [%] | remaining activity at 1 µM (DDR2; 1 µM) [%] | remaining activity at 1 µM (HIPK1; 1 µM) [%] | remaining activity at 1 µM (MNK2; 1 µM) [%] | remaining activity at 1 µM (PAK4; 1 µM) [%] | remaining activity at 1 µM (PKC alpha; 1 µM) [%] | remaining activity at 1 µM (S6K1; 1 µM) [%] | remaining activity at 1 µM (SGK1; 1 µM) [%] | remaining activity at 1 µM (Src; 1 µM) [%] | remaining activity at 1 µM (ZAP70; 1 µM) [%] | remaining activity at 1 µM (Aurora B) [%] | remaining activity at 1 µM (DDR2) [%] | remaining activity at 1 µM (HIPK1) [%] | remaining activity at 1 µM (MNK2) [%] | remaining activity at 1 µM (PAK4) [%] | remaining activity at 1 µM (PKC alpha) [%] | remaining activity at 1 µM (S6K1) [%] | remaining activity at 1 µM (SGK1) [%] | remaining activity at 1 µM (Src) [%] | remaining activity at 1 µM (ZAP70) [%]
1 | Cc1ccc(F)c(S(=O)(=O)Nc2ccc(-c3nc(OC[C@H]4CN(CCCCCCOCCOCCOCC(=O)N[C@H](C(=O)N5C[C@H](O)C[C@H]5C(=O)NCc5ccc(-c6scnc6C)cc5)C(C)(C)C)CCO4)c4cn[nH]c4n3)cc2)c1 [SGK3-PROTAC1] | 93 | 114 | 135 | 122 | 81 | 121 | 19 | 34 | 83 | 75 |  |  |  |  |  |  |  |  |  | 
2 | Cc1ccc(F)c(S(=O)(=O)Nc2ccc(-c3nc(OC[C@H]4CNCCO4)c4cn[nH]c4n3)cc2)c1 [308-R, reference compound] |  |  |  |  |  |  |  |  |  |  | 115 | 106 | 73 | 78 | 102 | 135 | 1 | 10 | 131 | 101
3 | COc1ccc(Cl)c(S(=O)(=O)Nc2ccc(-c3nc(OC[C@H]4CNCCO4)c4c(C)n[nH]c4n3)cc2)c1 [290-R, reference compound] |  |  |  |  |  |  |  |  |  |  | 70 | 80 | 117 | 119 | 91 | 113 | 1 | 2 | 104 | 98
4 | Cc1ccc(F)c(S(=O)(=O)Nc2ccc(-c3nc(OC[C@H]4CN(CCCCCCOCCOCCOCC(=O)N[C@H](C(=O)N5C[C@@H](O)C[C@H]5C(=O)NCc5ccc(-c6scnc6C)cc5)C(C)(C)C)CCO4)c4cn[nH]c4n3)cc2)c1 [cisSGK3-PROTAC1] | 95 | 134 | 126 | 122 | 113 | 118 | 20 | 51 | 87 | 75 |  |  |  |  |  |  |  |  |  | 

— PMC6757289, “Design and Characterization of SGK3-PROTAC1, an Isoform Specific SGK3 Kinase PROTAC Degrader” (ACS Chemical Biology, 2019)
